Converted amounts (≈) assume the structure as drawn. The source made the active and inactive calls. No cut-off for these calls is given here.
How the values were obtained:
Staphylococcus aureus [1] = assay: Antibacterial activity against Staphylococcus aureus CGMCC1.8721 assessed as reduction in bacterial growth in presence of phosphatidylglycerol; assay type: functional
Staphylococcus aureus [2] = assay: Antibacterial activity against Staphylococcus aureus CGMCC1.8721 assessed as reduction in bacterial growth; assay type: functional
Staphylococcus aureus [3] = assay: Antibacterial activity against methicillin-resistant Staphylococcus aureus ATCC 43300 assessed as reduction in bacterial growth; assay type: functional
Staphylococcus aureus [4] = assay: Antibacterial activity against methicillin-resistant Staphylococcus aureus CGMCC 1.12409 assessed as reduction in bacterial growth; assay type: functional
Staphylococcus aureus [5] = assay: Antibacterial activity against methicillin-resistant Staphylococcus aureus ATCC 33591 assessed as reduction in bacterial growth; assay type: functional
Staphylococcus aureus [6] = assay: Bactericidal activity against Staphylococcus aureus CGMCC1.8721 assessed as reduction in bacterial growth; assay type: functional
Staphylococcus aureus [7] = assay: Bactericidal activity against methicillin-resistant Staphylococcus aureus ATCC 43300 assessed as reduction in bacterial growth; assay type: functional
Staphylococcus aureus [8] = assay: Bactericidal activity against methicillin-resistant Staphylococcus aureus CGMCC 1.12409 assessed as reduction in bacterial growth; assay type: functional
Staphylococcus aureus [9] = assay: Bactericidal activity against methicillin-resistant Staphylococcus aureus ATCC 33591 assessed as reduction in bacterial growth; assay type: functional
Staphylococcus aureus [10] = assay: Antibacterial activity against Methicillin-resistant Staphylococcus aureus CGMCC1.8721 infected in mouse skin infection model assessed as reduction in bacterial clones at 5 mg/kg, sc; assay type: functional, organism-based
Staphylococcus aureus [11] = assay: Antibacterial activity against Methicillin-resistant Staphylococcus aureus CGMCC1.8721 infected in mouse skin infection model assessed as reduction in bacterial load at 5 mg/kg, sc; assay type: functional; parameters: scale not given: the % may be the effect or the level left

| Structure (SMILES) | MIC (Staphylococcus aureus [2]) [µg/mL] | MIC (Staphylococcus aureus [3]) [µg/mL] | MIC (Staphylococcus aureus [4]) [µg/mL] | MIC (Staphylococcus aureus [5]) [µg/mL] | also measured |
| --- | --- | --- | --- | --- | --- |
| O=C(N[C@H](CO)[C@H](O)c1ccc([N+](=O)[O-])cc1)C(Cl)Cl |  |  |  |  | Activity (Staphylococcus aureus [1]): inactive |
| COc1ccc2[nH]cc(C[C@@H](C)[C@H]3CC[C@H]4[C@@H]5CC[C@@H]6C[C@H](O)CC[C@]6(C)[C@H]5CC[C@]34C)c2c1 | 16 (≈ 34.5 µM) | 32 (≈ 69 µM) | 32 (≈ 69 µM) | 32 (≈ 69 µM) |  |
| COc1ccc(NCc2ccc3[nH]cc(C[C@@H](C)[C@H]4CC[C@H]5[C@@H]6CC[C@@H]7C[C@H](O)CC[C@]7(C)[C@H]6CC[C@]45C)c3c2)cc1 | 16 (≈ 28.1 µM) | 16 (≈ 28.1 µM) |  |  |  |
| CCNCc1ccc2[nH]cc([C@H]3CC[C@H]4[C@@H]5CCc6cc(O)ccc6[C@H]5CC[C@]34C)c2c1 | 1 (≈ 2.33 µM) | 1 (≈ 2.33 µM) | 4 (≈ 9.33 µM) | 4 (≈ 9.33 µM) | MBC (Staphylococcus aureus [6]): 2 µg/mL (≈ 4.67 µM); MBC (Staphylococcus aureus [7]): 2 µg/mL (≈ 4.67 µM); MBC (Staphylococcus aureus [8]): 8 µg/mL (≈ 18.7 µM); MBC (Staphylococcus aureus [9]): 8 µg/mL (≈ 18.7 µM) |
| C[C@H](Cc1c[nH]c2ccc(CN3CCOCC3)cc12)[C@H]1CC[C@H]2[C@@H]3CC[C@@H]4C[C@H](O)CC[C@]4(C)[C@H]3CC[C@]12C | 16 (≈ 30 µM) | 32 (≈ 60.1 µM) |  |  |  |
| CCCCCCCCCC(=O)N[C@@H](Cc1c[nH]c2ccccc12)C(=O)N[C@@H](CC(N)=O)C(=O)N[C@@H](CC(=O)O)C(=O)N[C@@H]1C(=O)NCC(=O)N[C@@H](CCCN)C(=O)N[C@@H](CC(=O)O)C(=O)N[C@H](C)C(=O)N[C@@H](CC(=O)O)C(=O)NCC(=O)N[C@H](CO)C(=O)N[C@@H]([C@@H](C)CC(=O)O)C(=O)N[C@@H](CC(=O)c2ccccc2N)C(=O)O[C@@H]1C |  |  |  |  | Activity (Staphylococcus aureus [1]): Active |
| CC1CN(Cc2ccc3[nH]cc(C[C@@H](C)[C@H]4CC[C@H]5[C@@H]6CC[C@@H]7C[C@H](O)CC[C@]7(C)[C@H]6CC[C@]45C)c3c2)CC(C)N1 (some centres undefined) | 32 (≈ 57.2 µM) |  |  |  |  |
| COc1ccc2[nH]cc(C[C@@H](C)[C@H]3CC[C@H]4[C@@H]5[C@H](O)C[C@@H]6C[C@H](O)CC[C@]6(C)[C@H]5C[C@H](O)[C@]34C)c2c1 | 16 (≈ 32.3 µM) | 32 (≈ 64.6 µM) | 32 (≈ 64.6 µM) | 32 (≈ 64.6 µM) |  |
| C[C@H](Cc1c[nH]c2ccc(CNCCCl)cc12)[C@H]1CC[C@H]2[C@@H]3CC[C@@H]4C[C@H](O)CC[C@]4(C)[C@H]3CC[C@]12C | 32 (≈ 60.9 µM) |  |  |  |  |
| C[C@H](Cc1c[nH]c2ccccc12)[C@H]1CC[C@H]2[C@@H]3CC[C@@H]4C[C@H](O)CC[C@]4(C)[C@H]3CC[C@]12C | > 32 |  |  |  |  |
| C[C@H](Cc1c[nH]c2ccc(CN3CCC(O)C3)cc12)[C@H]1CC[C@H]2[C@@H]3CC[C@@H]4C[C@H](O)CC[C@]4(C)[C@H]3CC[C@]12C (some centres undefined) | 8 (≈ 15 µM) | 16 (≈ 30 µM) |  |  |  |
| CN[C@H](CC(C)C)C(=O)N[C@H]1C(=O)N[C@@H](CC(N)=O)C(=O)N[C@H]2C(=O)N[C@H]3C(=O)N[C@H](C(=O)N[C@H](C(=O)O)c4cc(O)cc(O)c4-c4cc3ccc4O)[C@H](O)c3ccc(c(Cl)c3)Oc3cc2cc(c3O[C@@H]2O[C@H](CO)[C@@H](O)[C@H](O)[C@H]2O[C@H]2C[C@](C)(N)[C@H](O)[C@H](C)O2)Oc2ccc(cc2Cl)[C@H]1O [VANCOMYCIN] |  |  |  |  | Activity (Staphylococcus aureus [1]): inactive; Activity (Staphylococcus aureus [10]): Active; Activity (Staphylococcus aureus [11]): 87% |
| COc1ccc2[nH]cc(C[C@@H](C)[C@H]3CC[C@H]4[C@@H]5[C@H](O)C[C@@H]6C[C@H](O)CC[C@]6(C)[C@H]5CC[C@]34C)c2c1 | 16 (≈ 33.4 µM) | 32 (≈ 66.7 µM) | 32 (≈ 66.7 µM) | 32 (≈ 66.7 µM) |  |
| C[C@H](Cc1c[nH]c2ccc(CO)cc12)[C@H]1CC[C@H]2[C@@H]3CC[C@@H]4C[C@H](O)CC[C@]4(C)[C@H]3CC[C@]12C | 16 (≈ 34.5 µM) | 32 (≈ 69 µM) | 32 (≈ 69 µM) |  |  |
| CCn1cc(C(=O)O)c(=O)c2cc(F)c(N3CCNCC3)cc21 |  |  |  |  | Activity (Staphylococcus aureus [1]): inactive |
| C[C@H](Cc1c[nH]c2ccc(CN3CCN(C)CC3)cc12)[C@H]1CC[C@H]2[C@@H]3CC[C@@H]4C[C@H](O)CC[C@]4(C)[C@H]3CC[C@]12C | 16 (≈ 29.3 µM) |  |  |  |  |
| C[C@H](Cc1c[nH]c2ccc(CNc3ccc(C(F)(F)F)cc3)cc12)[C@H]1CC[C@H]2[C@@H]3CC[C@@H]4C[C@H](O)CC[C@]4(C)[C@H]3CC[C@]12C | 16 (≈ 26.4 µM) | 32 (≈ 52.7 µM) | > 32 |  |  |
| CCNCc1ccc2[nH]cc([C@H]3CC[C@H]4[C@@H]5CC[C@H]6C[C@@H](O)CC[C@]6(C)[C@H]5CC[C@]34C)c2c1 | 4 (≈ 8.91 µM) | 4 (≈ 8.91 µM) | 8 (≈ 17.8 µM) | 8 (≈ 17.8 µM) | MBC (Staphylococcus aureus [6]): 8 µg/mL (≈ 17.8 µM); MBC (Staphylococcus aureus [7]): 8 µg/mL (≈ 17.8 µM); MBC (Staphylococcus aureus [8]): 16 µg/mL (≈ 35.7 µM); MBC (Staphylococcus aureus [9]): 16 µg/mL (≈ 35.7 µM) |
| COc1ccc2[nH]cc([C@H]3CC[C@H]4[C@@H]5CCc6cc(O)ccc6[C@H]5CC[C@]34C)c2c1 | 16 (≈ 39.8 µM) | 32 (≈ 79.7 µM) |  |  |  |
| C[C@H](Cc1c[nH]c2ccc(CN3CCSCC3)cc12)[C@H]1CC[C@H]2[C@@H]3CC[C@@H]4C[C@H](O)CC[C@]4(C)[C@H]3CC[C@]12C | 8 (≈ 14.6 µM) | 16 (≈ 29.2 µM) | 16 (≈ 29.2 µM) | 16 (≈ 29.2 µM) |  |
| COc1ccc2[nH]cc([C@H]3CC[C@H]4[C@@H]5CC[C@H]6C[C@@H](O)CC[C@]6(C)[C@H]5CC[C@]34C)c2c1 | 16 (≈ 37.9 µM) | 16 (≈ 37.9 µM) |  |  |  |
| C[C@H](Cc1c[nH]c2ccc(CNCCN3CCN(C)CC3)cc12)[C@H]1CC[C@H]2[C@@H]3CC[C@@H]4C[C@H](O)CC[C@]4(C)[C@H]3CC[C@]12C | 2 (≈ 3.4 µM) | 2 (≈ 3.4 µM) | 4 (≈ 6.79 µM) | 4 (≈ 6.79 µM) |  |
| CNCc1ccc2[nH]cc(C[C@@H](C)[C@H]3CC[C@H]4[C@@H]5CC[C@@H]6C[C@H](O)CC[C@]6(C)[C@H]5CC[C@]34C)c2c1 | 2 (≈ 4.2 µM) | 2 (≈ 4.2 µM) | 2 (≈ 4.2 µM) | 2 (≈ 4.2 µM) | MBC (Staphylococcus aureus [6]): 2 µg/mL (≈ 4.2 µM); MBC (Staphylococcus aureus [7]): 4 µg/mL (≈ 8.39 µM); MBC (Staphylococcus aureus [8]): 4 µg/mL (≈ 8.39 µM); MBC (Staphylococcus aureus [9]): 4 µg/mL (≈ 8.39 µM) |
| C[C@H](Cc1c[nH]c2ccc(CN3CCNCC3)cc12)[C@H]1CC[C@H]2[C@@H]3CC[C@@H]4C[C@H](O)CC[C@]4(C)[C@H]3CC[C@]12C | 8 (≈ 15 µM) | 16 (≈ 30.1 µM) | 16 (≈ 30.1 µM) | 16 (≈ 30.1 µM) |  |
| C[C@H](Cc1c[nH]c2ccc(CNCCO)cc12)[C@H]1CC[C@H]2[C@@H]3CC[C@@H]4C[C@H](O)CC[C@]4(C)[C@H]3CC[C@]12C | 16 (≈ 31.6 µM) |  |  |  |  |
| C[C@H](Cc1c[nH]c2ccc(CN3CC(O)C3)cc12)[C@H]1CC[C@H]2[C@@H]3CC[C@@H]4C[C@H](O)CC[C@]4(C)[C@H]3CC[C@]12C | 8 (≈ 15.4 µM) | 8 (≈ 15.4 µM) | 16 (≈ 30.8 µM) | 16 (≈ 30.8 µM) |  |
| C[C@H](Cc1c[nH]c2ccc(CN3CCC(N4CCCC4)CC3)cc12)[C@H]1CC[C@H]2[C@@H]3CC[C@@H]4C[C@H](O)CC[C@]4(C)[C@H]3CC[C@]12C | 16 (≈ 26.7 µM) | 16 (≈ 26.7 µM) |  |  |  |
| CCCNCc1ccc2[nH]cc(C[C@@H](C)[C@H]3CC[C@H]4[C@@H]5CC[C@@H]6C[C@H](O)CC[C@]6(C)[C@H]5CC[C@]34C)c2c1 | 32 (≈ 63.4 µM) | 32 (≈ 63.4 µM) |  |  |  |
| CC1(C)S[C@@H]2[C@H](NC(=O)[C@H](N)c3ccccc3)C(=O)N2[C@H]1C(=O)O |  |  |  |  | Activity (Staphylococcus aureus [1]): inactive |

— ChEMBL document CHEMBL6078711, “Design, synthesis, and biological evaluation of steroidal indole derivatives as membrane-targeting antibacterial candidates” (Eur J Med Chem, 2025)
